Reference: patent US20260347325A1, “DIPHENYLPYRAZOLE COMPOUNDS AND THEIR USE” (INSTITUT NATIONAL DE LA SANTÉ ET DE LA RECHERCHE MÉDICALE, priority 2022, published 2026)

Columns and labels:
αCTF [1] = settings: 20-fold increase vs untreated; prior art reference compounds, footnotes e, f cite literature; cited from earlier work
AICD [2] = settings: 20-fold increase vs untreated; prior art reference compounds, footnotes e, f cite literature; cited from earlier work
SY5Y-APP695WT cells = settings: 72 h; prior art reference compounds, footnotes e, f cite literature; read-out: Cytotoxicity CC50; cited from earlier work
Aβ = settings: in words; cited from earlier work
APP-CTFs and AICD = settings: in words; cited from earlier work
[3] = system: γ-secretase cleavage of Notch; settings: in words; cited from earlier work
Aβ1-40 = Aβ1-40 secretion in SY5Y-APPwt cells (ELISA of conditioned media); type: cell-based; settings: Homo sapiens, 24 h, inhibiting 50% of Aβ1-40 secretion, mean ± SD of at least two experiments in triplicate
Procedure: (§1) 2. Cell Culture and Treatments
(§2) The human neuroblastoma cell line SY5Y-APP^695WT was maintained in Dulbecco's modified Eagle medium (DMEM, high glucose, pyruvate—GIBCO, Life Technologies) supplemented with 10% fetal bovine serum, 2 mM L-glutamine, 1 mM non-essential amino acids and penicillin/streptomycin (GIBCO, Life Technologies) at 37°C in a 5% CO2 humidified incubator [36]. For compound treatment, a 10 mM stock solution was diluted in freshly supplemented DMEM medium to obtain the precise final concentration of the drug. Cells were plated at a density of 5.10^5 cells per well into 12-well plates and cultured with 1 mL supplemented DMEM cell medium for 24 h before compound exposure. The following day, the cell medium was replaced with fresh medium containing the compounds diluted at the indicated concentrations. Cells were treated for 24 h. At the end of treatments, the cell medium was collected and kept at −80°C until use, cells were rinsed once with PBS and extracted in 100 μL of Laemmli buffer (10 mM Tris, 20% glycerol, and 2% sodium dodecyl sulfate) using a cell-scraper. The cell lysate was further sonicated (30 pulses of 0.5 s, 60 Hz) for 5 min. Total protein concentration was determined using the Pierce BCA Protein Assay Kit (Thermo Scientific) according to the manufacturer's instructions. Samples were stored at −80°C until analysis.
(§3) 5. Quantification of Secreted Aβ and sAPP […]
(§4) Aβ1-40/Aβ1_42 peptides, Aβx-38/Aβx-40/Aβx-42 and sAPPα/sAPPβ concentrations in […] were determined, respectively, using amyloid-beta 40 and 42 Human ELISA kits (Invitrogen), V-PLEX Plus Aβ Peptide Panel 1 (4G8) Kit (Meso Scale Diagnostics, MSD R©) and sAPPα/sAPPβ multiplex kit (Meso Scale Diagnostics, MSD R©) according to the manufacturer's instructions.
(§5) Compounds of the invention (compounds 16-17, 24-35, 57-58 and 61-72) were evaluated for their ability to modulate APP processing on SYSY human neuroblastoma cell line stably expressing the neuronal isoform of human wild-type APP695 (SY5Y-APP^wt). APP carboxy-terminal fragments (αCTFs and AICD) levels were assessed by western blotting (WB). The effect of reference and test compounds on αCTFs and AICD is expressed as the intensity of corresponding WB bands. The concentration of compounds able to increase 20-times αCTFs and AICD (C20) when compared to the control condition was calculated. Selected compounds were also evaluated for their ability to modulate the secretion of soluble APP fragments (sAPPα and sAPPβ). Aβ1-x levels (Aβ1_40 and Aβ1-42) after treatment with reference and tested compounds were measured in the cell media by ELISA (Table 2). […] Selected hit compounds were then further evaluated for their ability to decrease the level of N-truncated Aβ peptides (Aβx-38, Aβx-40, and Aβx-42). […]

Aβ1-42 = Aβ1-42 secretion in SY5Y-APPwt cells (ELISA of conditioned media); type: cell-based; settings: Homo sapiens, 24 h, inhibiting 50% of Aβ1-42 secretion, mean ± SD of at least two experiments in triplicate
Procedure: as §1, §2, §3, §4, §5

αCTF [4] = assay: αCTF level in SY5Y-APPwt cells by western blotting; type: cell-based; settings: Homo sapiens, 24 h; concentration to increase αCTF by 20-fold vs untreated; mean of at least three experiments, less than 10% deviation; read-out: αCTF (C20)
Procedure: as §2
(§6) Cell protein lysates were prepared for western-blot analysis by diluting the sample with 1 volume of NuPAGE® lithium dodecyl sulfate (LDS) 2× sample buffer supplemented with 20% NuPAGE® sample reducing agents (Invitrogen). Samples were heated for 10 min at 100°C Ten μg of total proteins per well were loaded onto precast 4-12% Criterion XT Bis-Tris polyacrylamide gels (Bio-Rad) and electrophoresis was achieved after applying a tension of 150 V during 90 min using a Criterion electrophoresis Cell with the NuPAGE® MOPS SDS running buffer (1×). Proteins were transferred to a nitrocellulose membrane of […] pore size (G&E Healthcare) using the Criterion blotting system and applying a tension of 100 V for 45 min. To resolve proteins of low molecular weights such as carboxy-terminal fragments of APP, 12% Criterion XT Bis-Tris polyacrylamide gels (Bio-Rad) were used and electrophoresis was performed during 70 min at 150 V in a NuPAGE® MES SDS running buffer (1×). […] Protein transfer and quality were determined by a reversible Ponceau Red coloration (0.2% xylidine Ponceau Red and 3% trichloroacetic acid). […] Quantifications of protein expression levels were performed with Image Quant TL (G&E Healthcare). […]
(§7) Compounds of the invention (compounds 16-17, 24-35, 57-58 and 61-72) were evaluated for their ability to modulate APP processing on SYSY human neuroblastoma cell line stably expressing the neuronal isoform of human wild-type APP695 (SY5Y-APP^wt). […]

AICD [5] = assay: AICD level in SY5Y-APPwt cells by western blotting; type: cell-based; settings: Homo sapiens, 24 h; concentration to increase AICD by 20-fold vs untreated; mean of at least three experiments, less than 10% deviation; read-out: AICD (C20)
Procedure: as §2, §6, §7

Cytotoxicity MTS assay = type: cell-based; settings: human, sy5y-app695wt cells; 50% of cell death after 72 h treatment
Procedure: Cytotoxicity was measured using 3-(4,5-dimethylthiazol-2-yl)-5-(3-carboxymethoxyphenyl)-2-(4-sulfophenyl)-2H-tetrazolium (MTS) tests. SY5Y-APP^695WT cells were plated in a 96-wells plate at 3.10^4 cells per well and allowed to attach for 24 h. Cells were then incubated for 72 h with 100 μL of DMEM medium with 10% SVF containing (or not) the defined concentration of drugs. Cytotoxicity was determined by using the colorimetric MTS assay (Cell Titer 96® Aqueous One Solution Cell Proliferation Assay-MTS Promega) according to the manufacturer's instructions. Absorbance was read at 490 nm.

sAPPβ = sAPPβ secretion (sAPPα/sAPPβ multiplex kit); type: cell-based; settings: Homo sapiens; inhibiting 50% of sAPPβ secretion in SY5Y cells; mean ± SD of at least three experiments in triplicate
Procedure: (§8) The human neuroblastoma cell line SY5Y-APP^695WT was maintained in Dulbecco's modified Eagle medium (DMEM, high glucose, pyruvate—GIBCO, Life Technologies) supplemented with 10% fetal bovine serum, 2 mM L-glutamine, 1 mM non-essential amino acids and penicillin/streptomycin (GIBCO, Life Technologies) at 37°C in a 5% CO2 humidified incubator [36]. For compound treatment, a 10 mM stock solution was diluted in freshly supplemented DMEM medium to obtain the precise final concentration of the drug. Cells were plated at a density of 5.10^5 cells per well into 12-well plates and cultured with 1 mL supplemented DMEM cell medium for 24 h before compound exposure. […] Total protein concentration was determined using the Pierce BCA Protein Assay Kit (Thermo Scientific) according to the manufacturer's instructions. […]
as §4, with “instructions. […]” for “instructions.”
(§9) The activity of compounds of the invention on sAPPα 6 and sAPPβ was further explored. The expression of sAPPβ and sAPPα, which are by-products of β- and α-secretase respectively, were quantified in media of treated cells.

sAPPα = sAPPα secretion (sAPPα/sAPPβ multiplex kit); type: cell-based, human; settings: for EC (1.5-fold): Homo sapiens, 24 h, concentration to increase sAPPα by 1.5-fold vs untreated, read-out: sAPPα C1.5; for secretion of sAPPα: in words
Procedure: as §2
Conditioned media of SYSY-APP^695WT collected at the end of treatments were centrifuged at 1000×g for 5 min to eliminate cell debris.
as §4
(§10) Compounds of the invention (compounds 16-17, 24-35, 57-58 and 61-72) were evaluated for their ability to modulate APP processing on SYSY human neuroblastoma cell line stably expressing the neuronal isoform of human wild-type APP695 (SY5Y-APP^wt). APP carboxy-terminal fragments (αCTFs and AICD) levels were assessed by western blotting (WB). The effect of reference and test compounds on αCTFs and AICD is expressed as the intensity of corresponding WB bands. The concentration of compounds able to increase 20-times αCTFs and AICD (C20) when compared to the control condition was calculated. Selected compounds were also evaluated for their ability to modulate the secretion of soluble APP fragments (sAPPα and sAPPβ). Aβ1-x levels (Aβ1_40 and Aβ1-42) after treatment with reference and tested compounds were measured in the cell media by ELISA (Table 2). […] Selected hit compounds were then further evaluated for their ability to decrease the level of N-truncated Aβ peptides (Aβx-38, Aβx-40, and Aβx-42). […] 2015, 6, 559-569; B1: compound 8 of M. Gay et al., Bioorg. Med. Chem. 2018, 26, 2151-2164.
as §9

Aβ1-x peptides = assay: Aβ1-x (Aβ1-40 and Aβ1-42) secretion; type: cell-based, human; settings: in words
Procedure: as §8, with “exposure. The following day, the cell medium was replaced with fresh medium containing the compounds diluted at the indicated concentrations. Cells were treated for 24 h.” for “exposure.”
as §4, with “instructions. […]” for “instructions.”

β-secretase = β-secretase cleavage of APP; type: cell-based, human; settings: in words
Procedure: as §10, §9

IC50 (Aβ1-40) | IC50 (Aβ1-42) | Compound | EC (20-fold increase) (αCTF [4]) | EC (20-fold increase) (AICD [5]) | CC50 at 72 h (Cytotoxicity MTS assay) | EC (1.5-fold) (sAPPα) | further results
4.2 ± 0.1 µM | 6.1 ± 0.3 µM | CN(C)CCCc1ccc(-c2nn(-c3ccc(CN(C)CCCN(C)C)cc3)cc2CN(C)C)cc1 [Compound 32, N′-[[4-[4-(dimethylaminomethyl)-3-[4-[3-(dimethylamino)propyl]phenyl]-1H-pyrazol-1-yl]phenyl]methyl]-N,N,N′-trimethyl-propane-1,3-diamine] | 1.1 µM | 1.8 µM | > 100 µM | – | –
9.2 ± 0.4 µM | 9.7 ± 1.2 µM | CN(C)CCCc1ccc(-c2nn(-c3ccc(CN(C)CCCN(C)C)cc3)cc2CCCN(C)C)cc1 [Compound 33, N′-[[4-[4-[3-(dimethylamino)propyl]-3-[4-[3-(dimethylamino)propyl]phenyl]-1H-pyrazol-1-yl]phenyl]methyl]-N,N,N′-trimethyl-propane-1,3-diamine] | 6.1 µM | 8.9 µM | > 100 µM | > 10 µM | IC50 (sAPPβ): 6.8 ± 0.3 µM
5.7 ± 0.5 µM | 8.3 ± 0.2 µM | CN(C)CCCc1ccc(-c2nn(-c3cccc(CN(C)CCCN(C)C)c3)cc2CN(C)C)cc1 [Compound 34, N′-[[3-[4-(dimethylaminomethyl)-3-[4-[3-(dimethylamino)propyl]phenyl]-1H-pyrazol-1-yl]phenyl]methyl]-N,N,N′-trimethyl-propane-1,3-diamine] | 1.1 µM | 1.9 µM | > 100 µM | > 10 µM | IC50 (sAPPβ): 4.5 ± 0.7 µM
12.4 ± 0.6 µM | 13.2 ± 0.2 µM | CN(C)CCCc1ccc(-c2nn(-c3cccc(CN(C)CCCN(C)C)c3)cc2CCCN(C)C)cc1 [Compound 35, N′-[[3-[4-[3-(dimethylamino)propyl]-3-[4-[3-(dimethylamino)propyl]phenyl]-1H-pyrazol-1-yl]phenyl]methyl]-N,N,N′-trimethyl-propane-1,3-diamine] | 5.1 µM | 5.4 µM | > 100 µM | – | –

Second part, the compound before the results:

Compound | IC50 (Aβ1-40) | IC50 (Aβ1-42) | EC (20-fold increase) (αCTF [4]) | EC (20-fold increase) (AICD [5]) | CC50 at 72 h (Cytotoxicity MTS assay) | EC (1.5-fold) (sAPPα) | further results
CCN(CC)CCCC(C)Nc1ccnc2cc(Cl)ccc12 (stereo not drawn) [CQ, chloroquine] | – | – | – | – | – | – | αCTF (C20) (αCTF [1]): >>10 μM; AICD (C20) (AICD [2]): >>10 μM; CC50 (SY5Y-APP695WT cells): 30 µM; Aβ production (Aβ): inhibit Aβ production; levels of other APP metabolites such as APP-CTFs and AICD (APP-CTFs and AICD): maintained and even increased; γ-secretase cleavage of Notch [3]: remains unmodified
Cc1cn(-c2cccc(CN(C)C)c2)nc1-c1ccc(CN(C)CCCN(C)C)cc1 [Compound 67, {[4-(1-{3-[(dimethylamino)methyl]phenyl}-4-methyl-1H-pyrazol-3-yl)phenyl]methyl}-[3-(dimethylamino)propyl]methylamine] | – | – | – | – | – | 1.4 µM | secretion of sAPPα (sAPPα): increasing the secretion of sAPPα; Aβ1-x peptides secretion (Aβ1-x peptides): reduce Aβ1-x peptides secretion; β-secretase cleavage of APP / β-secretase modulatory activity (β-secretase): repressing the β-secretase cleavage of APP
Cc1cn(-c2cccc(CN(C)CCCN(C)C)c2)nc1-c1ccc(CN(C)CCCN(C)C)cc1 [Compound 69, [3-(dimethylamino)propyl][(4-{1-[3-({[3-(dimethylamino)propyl](methyl)amino}methyl)phenyl]-4-methyl-1H-pyrazol-3-yl}phenyl)methyl]methylamine] | – | – | – | – | – | > 5 µM | –
Cc1cn(-c2cccc(CN3CCN(C)CC3)c2)nc1-c1cccc(CN(C)CCCN(C)C)c1 [Compound 71, N,N,N′-trimethyl-N′-[[3-[4-methyl-1-[3-[(4-methylpiperazin-1-yl)methyl]phenyl]pyrazol-3-yl]phenyl]methyl]propane-1,3-diamine] | – | – | – | – | – | 1.1 µM | secretion of sAPPα (sAPPα): increasing the secretion of sAPPα; Aβ1-x peptides secretion (Aβ1-x peptides): reduce Aβ1-x peptides secretion; β-secretase cleavage of APP / β-secretase modulatory activity (β-secretase): repressing the β-secretase cleavage of APP
